According to patent publication US20070281046A1, “Method for removing organic contaminants from Chinese herb medicines” (Committee on Chinese Medicine and Pharmacy, Department of …, priority 2006, published 2007):
Marks after values point to notes of the source that are not given here.

How the values were obtained:
[1] = Degradation of nine organochlorine pesticides by gamma irradiation in samples of P. quinquefolium (GC analysis); type: physicochemical; settings: for remaining concentration of organochlorine pesticides in samples: P. quinquefolium samples, mean of three; for proportion of pesticide degraded: gamma irradiation of P. quinquefolium samples, dose not stated in the sentence (matches 25 kGy of Table 1)
Description: The nine organochlorine pesticides that included Aldrin, Lindane, Heptachlor, Endosulfan-1, Endosulfan-2, o,p′-DDD), p,p′-DDD, p,p′-DDE, and p,p′-DDT were simultaneously prepared in a n-hexane solution. Subsequently, the n-hexane solution that contained the aforesaid organochlorine pesticides was evenly sprayed into samples of P. quinquefolium; the concentration of each of the nine organochlorine pesticides contained in the samples was approximately 0.5 ppm. The samples were cut into pieces with scissors, and then divided into separate packs that weighed 10 g, respectively; the packs were subjected to gamma irradiation of different dosages ranging from 0, 5, 10, 15, 20, and 25 kGy, and followed by the analysis of concentration of the aforesaid organochlorine pesticides. […] Solution was extracted from the samples by using 70% aqueous acetone, and then the extracted solution was subjected to filtration, a decrease in pressure, and condensation in order to remove acetone, followed by the addition of hydrochloric acid and n-hexane to bring the extracted solution to 100 ml, so that the organochlorine pesticides were distributed to the organic layer. Consequently, magnesium silicate was added into the resulted solution in order to depigment and purify it, and once the solution has undergone a decrease in pressure and condensation again for drying, it was brought to 5 ml by adding n-hexane solution to prepare it for gas chromatography (GC) analysis. After undergoing centrifugation, 2 μl of the resulted solution was taken for GC analysis to find out the respective concentration of each of the aforesaid organochlorine pesticides remaining in the samples after receiving various dosages of gamma irradiation.

[2] = Concentration of marker components (ginsenosides) in P. quinquefolium samples after gamma irradiation (HPLC); type: physicochemical; settings: for concentration of marker components of P. quinquefolium (ginsenoside): mean ± SD, three repeats; for effect of gamma irradiation on concentration of marker components: 10 kGy and 15 kGy gamma irradiation, P. quinquefolium samples
Method: Samples of P. quinquefolium that have respectively received gamma irradiation in dosages of 0, 10, 15, and 20 kGy were analyzed to find out the concentration of marker components therein, with the samples that have not received gamma irradiation as the control group. To extract marker components from the samples for analysis, 10 g of the samples were taken and prepared in 50 ml of 70% aqueous methanol solution, and heated in a convection heater at 60° C. for 15 minutes, followed by centrifugation in order to obtain the extract solution. Subsequently, the residual of the samples were subjected to the above-mentioned procedure again, and the extracted solution from the two rounds of procedures were mixed together and filtered, followed by the addition of 70% aqueous methanol solution to bring the volume up to 100 ml; the resulted solution was then stored at −20° C. and analyzed within 3 days. Before carrying out the analysis of ingredients, an adequate amount of the resulted solution was underwent filtration through a 0.22 μm pore size membrane, and then 20 μl of the solution was injected into a high performance liquid chromatographer for analysis (HPLC, Waters model 2695) each time; the analyses were carried out in combination with UV light—Visible light sensor of Waters model 2487, and a silicon-based reverse phase C-18 column (Cosmosil 5C18-MS-II, 5 μm, 4.6×250 mm, Nacalai Tesque, Inc., Kyoto, Japan) was used for analyzing the marker components of P. quinquefolium in the solution. The marker components of P. quinquefolium tested in the experiment included ginsenoside Rb1, ginsenoside Rg1, ginsenoside Rc, ginsenoside Rd, and ginsenoside Re; the detection wavelength of UV light was 203 ηm. The solution of 15% aqueous phosphoric acid (H3PO4)—acetonitrile (CH3CN) (81:19 to 60:40) was used as the moving phase, and the moving phase was analyzed at 25° C. and 1.0 ml/min of flow velocity after being filtered with a 0.45 μm filtration membrane, so as to measure the concentration of the marker components in samples of P. quinquefolium that received various dosages of gamma irradiation.

[3] = 0 kGy gamma irradiation (control group)

Structure (SMILES): ClC1=C(Cl)C2(Cl)C3C4C=CC(C4)C3C1(Cl)C2(Cl)Cl (centres unmarked) [Aldrin]
- remaining concentration of organochlorine pesticides in samples [1, 3]: 0.532^a) ppm
- remaining concentration of organochlorine pesticides in samples ([1]; 5 kGy gamma irradiation): 0.376 ppm
- remaining concentration of organochlorine pesticides in samples ([1]; 10 kGy gamma irradiation): 0.279 ppm
- remaining concentration of organochlorine pesticides in samples ([1]; 15 kGy gamma irradiation): 0.218 ppm
- remaining concentration of organochlorine pesticides in samples ([1]; 20 kGy gamma irradiation): 0.168 ppm
- remaining concentration of organochlorine pesticides in samples ([1]; 25 kGy gamma irradiation): 0.123 ppm

Structure (SMILES): O=S1OC[C@@H]2[C@H](CO1)[C@@]1(Cl)C(Cl)=C(Cl)[C@]2(Cl)C1(Cl)Cl (some centres unmarked) [Endosulfan-1]
- remaining concentration of organochlorine pesticides in samples [1, 3]: 0.519 ppm
- remaining concentration of organochlorine pesticides in samples ([1]; 5 kGy gamma irradiation): 0.392 ppm
- remaining concentration of organochlorine pesticides in samples ([1]; 10 kGy gamma irradiation): 0.311 ppm
- remaining concentration of organochlorine pesticides in samples ([1]; 15 kGy gamma irradiation): 0.251 ppm
- remaining concentration of organochlorine pesticides in samples ([1]; 20 kGy gamma irradiation): 0.192 ppm
- remaining concentration of organochlorine pesticides in samples ([1]; 25 kGy gamma irradiation): 0.140 ppm

Structure (SMILES): O=S1OC[C@@H]2[C@H](CO1)[C@]1(Cl)C(Cl)=C(Cl)[C@]2(Cl)C1(Cl)Cl (some centres unmarked) [Endosulfan-2]
- remaining concentration of organochlorine pesticides in samples [1, 3]: 0.515 ppm
- remaining concentration of organochlorine pesticides in samples ([1]; 5 kGy gamma irradiation): 0.359 ppm
- remaining concentration of organochlorine pesticides in samples ([1]; 10 kGy gamma irradiation): 0.263 ppm
- remaining concentration of organochlorine pesticides in samples ([1]; 15 kGy gamma irradiation): 0.198 ppm
- remaining concentration of organochlorine pesticides in samples ([1]; 20 kGy gamma irradiation): 0.144 ppm
- remaining concentration of organochlorine pesticides in samples ([1]; 25 kGy gamma irradiation): 0.093 ppm

Structure (SMILES): ClC1=C(Cl)C2(Cl)C3C(Cl)C=CC3C1(Cl)C2(Cl)Cl (centres unmarked) [Heptachlor]
- remaining concentration of organochlorine pesticides in samples [1, 3]: 0.532 ppm
- remaining concentration of organochlorine pesticides in samples ([1]; 5 kGy gamma irradiation): 0.421 ppm
- remaining concentration of organochlorine pesticides in samples ([1]; 10 kGy gamma irradiation): 0.319 ppm
- remaining concentration of organochlorine pesticides in samples ([1]; 15 kGy gamma irradiation): 0.254 ppm
- remaining concentration of organochlorine pesticides in samples ([1]; 20 kGy gamma irradiation): 0.195 ppm
- remaining concentration of organochlorine pesticides in samples ([1]; 25 kGy gamma irradiation): 0.142 ppm

Structure (SMILES): Cl[C@H]1[C@H](Cl)[C@@H](Cl)[C@@H](Cl)[C@H](Cl)[C@H]1Cl [Lindane]
- remaining concentration of organochlorine pesticides in samples [1, 3]: 0.549 ppm
- remaining concentration of organochlorine pesticides in samples ([1]; 5 kGy gamma irradiation): 0.383 ppm
- remaining concentration of organochlorine pesticides in samples ([1]; 10 kGy gamma irradiation): 0.278 ppm
- remaining concentration of organochlorine pesticides in samples ([1]; 15 kGy gamma irradiation): 0.206 ppm
- remaining concentration of organochlorine pesticides in samples ([1]; 20 kGy gamma irradiation): 0.147 ppm
- remaining concentration of organochlorine pesticides in samples ([1]; 25 kGy gamma irradiation): 0.089 ppm
- proportion of pesticide degraded [1]: 84%

Structure (SMILES): CC(C)=CCC[C@](C)(O[C@@H]1O[C@H](CO[C@@H]2O[C@H](CO)[C@@H](O)[C@H](O)[C@H]2O)[C@@H](O)[C@H](O)[C@H]1O)[C@H]1CC[C@]2(C)[C@@H]1[C@H](O)C[C@@H]1[C@@]3(C)CC[C@H](O[C@@H]4O[C@H](CO)[C@@H](O)[C@H](O)[C@H]4O[C@@H]4O[C@H](CO)[C@@H](O)[C@H](O)[C@H]4O)C(C)(C)[C@@H]3CC[C@]12C [Rb1, ginsenoside Rb1]
- concentration of marker components of P. quinquefolium (ginsenoside) [2, 3]: 31.37 ± 0.15^a) mg/g
- effect of gamma irradiation on concentration of marker components [2]: would not affect
- concentration of marker components of P. quinquefolium (ginsenoside) ([2]; 10 kGy gamma irradiation): 31.01 ± 0.11 mg/g
- concentration of marker components of P. quinquefolium (ginsenoside) ([2]; 15 kGy gamma irradiation): 30.59 ± 0.63 mg/g
- concentration of marker components of P. quinquefolium (ginsenoside) ([2]; 20 kGy gamma irradiation): 29.39 ± 0.36 mg/g

Structure (SMILES): CC(C)=CCC[C@](C)(O[C@@H]1O[C@H](CO[C@@H]2O[C@@H](CO)[C@H](O)[C@H]2O)[C@@H](O)[C@H](O)[C@H]1O)[C@H]1CC[C@]2(C)[C@@H]1[C@H](O)C[C@@H]1[C@@]3(C)CC[C@H](O[C@@H]4O[C@H](CO)[C@@H](O)[C@H](O)[C@H]4O[C@@H]4O[C@H](CO)[C@@H](O)[C@H](O)[C@H]4O)C(C)(C)[C@@H]3CC[C@]12C [Rc, ginsenoside Rc]
- concentration of marker components of P. quinquefolium (ginsenoside) [2, 3]: 16.12 ± 0.47 mg/g
- effect of gamma irradiation on concentration of marker components [2]: would not affect
- concentration of marker components of P. quinquefolium (ginsenoside) ([2]; 10 kGy gamma irradiation): 15.91 ± 0.43 mg/g
- concentration of marker components of P. quinquefolium (ginsenoside) ([2]; 15 kGy gamma irradiation): 15.08 ± 0.27 mg/g
- concentration of marker components of P. quinquefolium (ginsenoside) ([2]; 20 kGy gamma irradiation): 14.46 ± 0.28 mg/g

Structure (SMILES): CC(C)=CCC[C@](C)(O[C@@H]1O[C@H](CO)[C@@H](O)[C@H](O)[C@H]1O)[C@H]1CC[C@]2(C)[C@@H]1[C@H](O)C[C@@H]1[C@@]3(C)CC[C@H](O[C@@H]4O[C@H](CO)[C@@H](O)[C@H](O)[C@H]4O[C@@H]4O[C@H](CO)[C@@H](O)[C@H](O)[C@H]4O)C(C)(C)[C@@H]3CC[C@]12C [Rd, ginsenoside Rd]
- concentration of marker components of P. quinquefolium (ginsenoside) [2, 3]: 9.02 ± 0.32 mg/g
- effect of gamma irradiation on concentration of marker components [2]: would not affect
- concentration of marker components of P. quinquefolium (ginsenoside) ([2]; 10 kGy gamma irradiation): 8.77 ± 0.15 mg/g
- concentration of marker components of P. quinquefolium (ginsenoside) ([2]; 15 kGy gamma irradiation): 8.44 ± 0.25 mg/g
- concentration of marker components of P. quinquefolium (ginsenoside) ([2]; 20 kGy gamma irradiation): 8.20 ± 0.17 mg/g

Structure (SMILES): Clc1ccc(C(c2ccccc2Cl)C(Cl)Cl)cc1 (centres unmarked) [o,p′-DDD]
- remaining concentration of organochlorine pesticides in samples [1, 3]: 0.476 ppm
- remaining concentration of organochlorine pesticides in samples ([1]; 5 kGy gamma irradiation): 0.337 ppm
- remaining concentration of organochlorine pesticides in samples ([1]; 10 kGy gamma irradiation): 0.250 ppm
- remaining concentration of organochlorine pesticides in samples ([1]; 15 kGy gamma irradiation): 0.196 ppm
- remaining concentration of organochlorine pesticides in samples ([1]; 20 kGy gamma irradiation): 0.155 ppm
- remaining concentration of organochlorine pesticides in samples ([1]; 25 kGy gamma irradiation): 0.119 ppm

Structure (SMILES): Clc1ccc(C(c2ccc(Cl)cc2)C(Cl)Cl)cc1 [p,p′-DDD]
- remaining concentration of organochlorine pesticides in samples [1, 3]: 0.502 ppm
- remaining concentration of organochlorine pesticides in samples ([1]; 5 kGy gamma irradiation): 0.370 ppm
- remaining concentration of organochlorine pesticides in samples ([1]; 10 kGy gamma irradiation): 0.282 ppm
- remaining concentration of organochlorine pesticides in samples ([1]; 15 kGy gamma irradiation): 0.227 ppm
- remaining concentration of organochlorine pesticides in samples ([1]; 20 kGy gamma irradiation): 0.179 ppm
- remaining concentration of organochlorine pesticides in samples ([1]; 25 kGy gamma irradiation): 0.147 ppm

Structure (SMILES): ClC(Cl)=C(c1ccc(Cl)cc1)c1ccc(Cl)cc1 [p,p′-DDE]
- remaining concentration of organochlorine pesticides in samples [1, 3]: 0.544 ppm
- remaining concentration of organochlorine pesticides in samples ([1]; 5 kGy gamma irradiation): 0.404 ppm
- remaining concentration of organochlorine pesticides in samples ([1]; 10 kGy gamma irradiation): 0.313 ppm
- remaining concentration of organochlorine pesticides in samples ([1]; 15 kGy gamma irradiation): 0.249 ppm
- remaining concentration of organochlorine pesticides in samples ([1]; 20 kGy gamma irradiation): 0.195 ppm
- remaining concentration of organochlorine pesticides in samples ([1]; 25 kGy gamma irradiation): 0.145 ppm

Structure (SMILES): Clc1ccc(C(c2ccc(Cl)cc2)C(Cl)(Cl)Cl)cc1 [p,p′-DDT]
- remaining concentration of organochlorine pesticides in samples [1, 3]: 0.520 ppm
- remaining concentration of organochlorine pesticides in samples ([1]; 5 kGy gamma irradiation): 0.344 ppm
- remaining concentration of organochlorine pesticides in samples ([1]; 10 kGy gamma irradiation): 0.242 ppm
- remaining concentration of organochlorine pesticides in samples ([1]; 15 kGy gamma irradiation): 0.178 ppm
- remaining concentration of organochlorine pesticides in samples ([1]; 20 kGy gamma irradiation): 0.127 ppm
- remaining concentration of organochlorine pesticides in samples ([1]; 25 kGy gamma irradiation): 0.082 ppm
- proportion of pesticide degraded [1]: 84%
